Assay results taken from patent US5191079A, “Quinolinecarboxylic acid derivatives” (priority 1990, dated 1993).
Structures can show the parent of a compound that is named as a salt.

What was measured:
Assay type in all cases: cell-based
[1] = tested on: Staphylococcus aureus Cowan I (IID 975); assay: MIC, Experiment 1; settings: IID975, S. aureus Cowan I (IID 975), Gram +, read-out: Min. inhib. concentr. (MIC)
Description: (§1) The compounds of the present invention (B, E, G, H, M, N, O, P and Q) were each dissolved in dimethylsulfoxide to prepare a solution of 5000 μg/ml in concentration. The compounds of the present invention (I, J and K) and the known compound (Y) were each dissolved in sterilized distilled water to prepare a solution of 5000 μg/ml in concentration. Each solution was diluted with sterilized distilled water to prepare a standard solution with a concentration of each test compound: 1000 μg/ml. The test was carried out by a method as appointed by Japan Society of Chemotherapy [cf. Chemotherapy, 29, 76-79 (1981), TOKYO].
(§2) As to Streptococcus pneumoniae and Streptococcus pyogenes, Brain heart infusion broth (manufactured by DIFCO) was used as the medium for the preculture thereof, and a heart infusion agar medium containing 5% defibrinated horse blood (manufactured by Nissui Seiyaku K. K., Japan) was used as the medium for the measurement of minimum inhibitory concentration (MIC). As to other microorganisms, a sensitivity test broth (manufactured by Nissui Seiyaku K. K.) was used as the medium for the preculture thereof, and a sensitivity test agar medium (manufactured by Nissui Seiyaku K. K.) was used as the medium for the measurement of MIC.

[2] = tested on: Pseudomonas aeruginosa NCTC 10490; assay: MIC, Experiment 1; settings: NCTC10490, P. aeruginosa NCTC 10490, Gram -, read-out: Min. inhib. concentr. (MIC)
Description: as §1, §2

[3] = tested on: Streptococcus pneumoniae IID 554; assay: MIC, Experiment 1; settings: IID554, S. pneumoniae IID 554, Gram +, agar with 5% defibrinated horse blood, read-out: Min. inhib. concentr. (MIC)
Description: as §1, §2

[4] = tested on: Staphylococcus aureus IID 803; assay: MIC, Experiment 1; settings: IID803, S. aureus IID 803, Gram +, read-out: Min. inhib. concentr. (MIC)
Description: as §1, §2

[5] = tested on: Streptococcus pyogenes Cook; assay: MIC, Experiment 1; settings: S. pyogenes Cook, Gram +, agar with 5% defibrinated horse blood, read-out: Min. inhib. concentr. (MIC)
Description: as §1, §2

[6] = tested on: Enterobacter cloacae 963; assay: MIC, Experiment 1; settings: E. cloacae 963, Gram -, read-out: Min. inhib. concentr. (MIC)
Description: as §1, §2

[7] = tested on: Klebsiella pneumoniae PCI-602; assay: MIC, Experiment 1; settings: PCI602, K. pneumoniae PCI-602, Gram -, read-out: Min. inhib. concentr. (MIC)
Description: as §1, §2

[8] = tested on: Staphylococcus aureus Terajima (IID 670); assay: MIC, Experiment 1; settings: IID670, S. aureus Terajima (IID 670), Gram +, read-out: Min. inhib. concentr. (MIC)
Description: as §1, §2

[9] = tested on: Micrococcus luteus ATCC 9341; assay: MIC, Experiment 1; settings: ATCC9341, M. luteus ATCC 9341, Gram +, read-out: Min. inhib. concentr. (MIC)
Description: as §1, §2

[10] = tested on: Streptococcus pyogenes Su; assay: MIC, Experiment 1; settings: S. pyogenes Su, Gram +, agar with 5% defibrinated horse blood, read-out: Min. inhib. concentr. (MIC)
Description: as §1, §2

[11] = tested on: Streptococcus pyogenes Sv; assay: MIC, Experiment 1; settings: S. pyogenes Sv, Gram +, agar with 5% defibrinated horse blood, read-out: Min. inhib. concentr. (MIC)
Description: as §1, §2

[12] = tested on: Bacillus subtilis ATCC 6633; assay: MIC, Experiment 1; settings: ATCC6633, B. subtilis ATCC 6633, Gram +, read-out: Min. inhib. concentr. (MIC)
Description: as §1, §2

[13] = tested on: Staphylococcus aureus MS-353; assay: MIC, Experiment 1; settings: MS353, S. aureus MS-353, Gram +, read-out: Min. inhib. concentr. (MIC)
Description: as §1, §2

[14] = tested on: Streptococcus pneumoniae IID 552; assay: MIC, Experiment 1; settings: IID552, S. pneumoniae IID 552, Gram +, agar with 5% defibrinated horse blood, read-out: Min. inhib. concentr. (MIC)
Description: as §1, §2

[15] = tested on: Staphylococcus aureus FDA 243; assay: MIC, Experiment 1; settings: FDA243, S. aureus FDA 243, Gram +, read-out: Min. inhib. concentr. (MIC)
Description: as §1, §2

[16] = tested on: Acinetobacter calcoaceticus Ac 54; assay: MIC, Experiment 1; settings: AC54, A. calcoaceticus Ac 54, Gram -, read-out: Min. inhib. concentr. (MIC)
Description: as §1, §2

[17] = tested on: Proteus mirabilis IFO 3849; assay: MIC, Experiment 1; settings: IFO3849, P. mirabilis IFO 3849, Gram -, read-out: Min. inhib. concentr. (MIC)
Description: as §1, §2

[18] = tested on: Staphylococcus aureus ATCC 9144; assay: MIC, Experiment 1; settings: ATCC9144, S. aureus ATCC 9144, Gram +, read-out: Min. inhib. concentr. (MIC)
Description: as §1, §2

[19] = tested on: Escherichia coli NIHJ JC-2; assay: MIC, Experiment 1; settings: NIHJJC2, E. coli NIHJ JC-2, Gram -, read-out: Min. inhib. concentr. (MIC)
Description: as §1, §2

[20] = tested on: Bacillus cereus IAM 1029; assay: MIC, Experiment 1; settings: IAM1029, B. cereus IAM 1029, Gram +, read-out: Min. inhib. concentr. (MIC)
Description: as §1, §2

[21] = tested on: Staphylococcus aureus FDA 209P JC-1; assay: MIC, Experiment 1; settings: FDA209P, S. aureus FDA 209P JC-1, Gram +, read-out: Min. inhib. concentr. (MIC)
Description: as §1, §2

[22] = tested on: clinically isolated Enterococcus faecium; assay: In vitro antibacterial activity against clinical isolates, Experiment 2; settings: for MIC / MIC90: 25 clinical strains E. faecium; for MIC90: 90% of strains, read-out: MIC90
Description: (§3) The above solutions were then diluted with sterilized distilled water to prepare a standard solution with a concentration of the test compound: 1000 μg/ml each.
(§4) For the preculture of each microorganism, there was used as the medium a sensitivity test broth (manufactured by Nissui Seiyaku K. K., Japan), and for the measurement of MIC, there was used a sensitivity test agar medium (manufactured by Nissui Seiyaku K. K.).
(§5) The clinically isolates used above were isolated from Nov. 1988 to Jun. 1989 and were obtained from Research Section, Tokyo Clinical Research Center.

[23] = tested on: clinically isolated Enterococcus faecalis; assay: as above; settings: for MIC / MIC90: 25 clinical strains E. faecalis; for MIC90: 90% of strains, read-out: MIC90
Description: as §3, §4, §5

Row | Structure (SMILES) | MIC [1] | MIC [2] | MIC [3] | MIC [4] | MIC [5] | MIC [6] | MIC [7] | MIC [8] | MIC [9] | MIC [10] | MIC [11] | MIC [12] | MIC [13] | MIC [14] | MIC [15] | MIC [16] | MIC [17] | MIC [18] | MIC [19] | MIC [20] | further results
1 | CN1Cc2csc3c(C(=O)O)c(=O)c4cc(F)c(N5CCN(C)C(CO)C5)c1c4n23 (stereo not drawn) [Compound (I), 9,1-(Methylimino)methano-7-fluoro-8-(3-hydroxymethyl-4-methyl-1-piperazinyl)-5-oxo-5H-thiazolo-[3,2-a]quinoline-4-carboxylic acid hydrochloride] | 0.2 µg/mL | 0.78 µg/mL | 0.05 µg/mL | 0.2 µg/mL | 0.05 µg/mL | 0.2 µg/mL | 0.025 µg/mL | 0.2 µg/mL | 0.39 µg/mL | 0.05 µg/mL | 0.1 µg/mL | 0.1 µg/mL | 0.39 µg/mL | 0.1 µg/mL | 0.1 µg/mL | 0.1 µg/mL | 0.78 µg/mL | 0.1 µg/mL | 0.2 µg/mL | 0.2 µg/mL | MIC [21]: 0.2 µg/mL; MIC50 [22]: 3.13 µg/mL; MIC [22]: 0.2 to 25 µg/mL; MIC90 [22]: 12.5 µg/mL; MIC50 [23]: 0.39 µg/mL; MIC [23]: 0.2 to 12.5 µg/mL; MIC90 [23]: 12.5 µg/mL
2 | COCC1CN(c2c(F)cc3c(=O)c(C(=O)O)c4scc5n4c3c2N(C)C5)CCN1C (stereo not drawn) [Compound (J), 9,1-(Methylimino)methano-7-fluoro-8-(3-methoxymethyl-4-methyl-1-piperazinyl)-5-oxo-5H-thiazolo[3,2-a]quinoline-4-carboxylic acid hydrochloride] | 0.05 µg/mL | 1.56 µg/mL | 0.1 µg/mL | 0.1 µg/mL | 0.1 µg/mL | 0.39 µg/mL | 0.05 µg/mL | 0.1 µg/mL | 0.39 µg/mL | 0.1 µg/mL | 0.1 µg/mL | 0.05 µg/mL | 0.1 µg/mL | 0.05 µg/mL | 0.05 µg/mL | 0.1 µg/mL | 1.56 µg/mL | 0.1 µg/mL | 0.39 µg/mL | 0.1 µg/mL | MIC [21]: 0.05 µg/mL; MIC50 [22]: 3.13 µg/mL; MIC [22]: 0.39 to 25 µg/mL; MIC90 [22]: 12.5 µg/mL; MIC50 [23]: 0.39 µg/mL; MIC [23]: 0.2 to 12.5 µg/mL; MIC90 [23]: 12.5 µg/mL
